Tests used:
Akt1 phosphorylation = assay: Detection of Akt1 phosphorylation by intracellular flow cytometry; type: cell-based, human; conditions: for decrease of Akt1 phospho-form: HT-29 cells; for phosphorylation of Akt1: GI50 and TGI concentrations
Method: (§1) To investigate whether KA25 and KA39 triazolo[3,4-b]thiadiazole derivatives inhibit the phosphorylation of Akt1 and Akt2 isoforms, three colorectal cancer cell lines including HT-29, LoVo, and SW403 were intracellularly stained upon treatment with the two referred compounds. Firstly, cells were seeded into a 6-well plate at a density of 7 × 10^5 cells/well and maintained at 37 °C in a […]. After 24 h of cell growth, the culture medium was discarded and replaced with 2 mL of fresh medium. […] The required GI50 and TGI concentrations (μΜ) of the KA25 and KA39 derivatives in HT-29 and LoVo cells have been determined in previous studies. To estimate the TGI concentration (μΜ) of the KA25 compound in SW403 cells, further MTT assays were carried out as previously described. Following drug exposure at the mentioned treatment conditions, the cells were collected after being washed with ice-cold PBS (pH = 7.4) and detached enzymatically with standard trypsinization. Two centrifugations were followed at 1500 rpm for 5 min, including two washing steps with 2 mL of cell staining buffer (BioLegend, San Diego, CA, USA). Cell pellets were fixed with 500 μL of pre-warmed fixation buffer (BioLegend, San Diego, CA, USA) and incubated at 37 °C for 15 min. Afterwards, one centrifugation was carried out at 1000 rpm for 5 min, followed by supernatant discard and resuspension of cell pellet through vortex. Then, the cells were washed with 2 mL of cell staining buffer twice, including two centrifugations at 1000 rpm for 5 min at room temperature. After the cell pellet was resuspended with gentle pipetting, cells were permeabilized by adding 1000 μL of pre-chilled True-Phos Permeabilization buffer (BioLegend, San Diego, CA, USA) while vortexing. Following overnight incubation at −20 °C, the cells were centrifuged at 2000 rpm for 5 min and the supernatant was discarded. After the cell pellet was resuspended by vortexing, two centrifugations were performed at 2000 rpm for 5 min including two washes with 2 mL of cell staining buffer. The cell pellet was resuspended with 200 μL of cell staining buffer, and equal volumes were transferred into the appropriate tubes. To detect total Akt1 and Akt2, 2 μL of purified anti-Akt1 and anti-Akt2 (BioLegend, San Diego, CA, USA) was added, respectively. Additionally, 2 μL of purified anti-Akt phospho(Ser473) (BioLegend, San Diego, CA, USA) was added for the detection of either phosphorylated AKT1 or AKT2. Furthermore, a cocktail of isotype controls (5 μL of purified mouse IgG1, 5 μL of purified mouse IgG2b, and 1 μL of purified rabbit polyclonal isotype control antibody) was used to differentiate nonspecific background signals from specific antibody signals. The cells were incubated for 30 min at room temperature in the dark and then stained with 5 μL of phycoerythrin (PE) donkey anti-rabbit IgG and 2 μL of Alexa Fluor 488 Goat anti mouse IgG (BioLegend, San Diego, CA, USA). After 15 min of incubation in the dark, the cells were resuspended with 1000 μL of cell staining buffer and analyzed in the flow cytometer (CyFlow®, SL, Partec, GmbH, Muenster, Germany). Flow cytometric analysis was carried out in triplicate and performed by Partec Flomax software.
(§2) The inhibitory impact of the two triazolo[3,4-b]thiadiazole derivatives KA25 and KA39 on the phosphorylation of either Akt1 (p-Akt1) or Akt2 (p-Akt2) was determined by the following formulas: p-Akt1(%) or p-Akt2 (%) = [(mean-xtreated − isotypetreated)]/[(mean-xuntreated − isotypeuntreated)] × 100, where the isotype value is subtracted from the mean-x value of the corresponding condition, including treated and untreated cells. As the formulas indicate, the difference in value of treated cells is divided by the difference in value of untreated cells (control group) to estimate the extent of inhibition. […]

Akt2 phosphorylation = assay: Detection of Akt2 phosphorylation by intracellular flow cytometry; type: cell-based, human; conditions: for decrease of Akt2 phospho-form: HT-29 cells; for phosphorylation of Akt2: GI50 and TGI concentrations
Method: as §1, §2

HT-29 = system: HT-29; parameters: method as in PMID 32801761; conditions: HT-29 cells, concentration used for Akt phosphorylation study, determined in previous studies ref 23; cited from earlier work
[1] = GI50 concentration (KA39 11.5 μΜ, KA25 1 μΜ), 3 h
[2] = GI50 concentration (KA39 11.5 μΜ, KA25 1 μΜ), 24 h
[3] = TGI concentration (KA39 15.9 μΜ, KA25 120 μΜ), 3 h
[4] = TGI concentration (KA39 15.9 μΜ, KA25 120 μΜ), 24 h
[5] = LoVo cells, 3 and 24 h (Figure S47)
[6] = SW403 cells, 3 and 24 h (Figure S48)

| Structure (SMILES) | decrease of Akt1 phospho-form (Akt1 phosphorylation; [1]) | decrease of Akt1 phospho-form (Akt1 phosphorylation; [2]) | decrease of Akt1 phospho-form (Akt1 phosphorylation; [3]) | decrease of Akt1 phospho-form (Akt1 phosphorylation; [4]) | phosphorylation of Akt1 (Akt1 phosphorylation; [5]) | phosphorylation of Akt1 (Akt1 phosphorylation; [6]) | decrease of Akt2 phospho-form (Akt2 phosphorylation; [1]) | decrease of Akt2 phospho-form (Akt2 phosphorylation; [2]) | decrease of Akt2 phospho-form (Akt2 phosphorylation; [3]) | decrease of Akt2 phospho-form (Akt2 phosphorylation; [4]) | phosphorylation of Akt2 (Akt2 phosphorylation; [5]) | phosphorylation of Akt2 (Akt2 phosphorylation; [6]) | TGI concentration (HT-29) |
| --- | --- | --- | --- | --- | --- | --- | --- | --- | --- | --- | --- | --- | --- |
| COc1cc(Cc2nnc3sc(-c4cc([N+](=O)[O-])ccc4[N+](=O)[O-])nn23)c(S(=O)(=O)N(C)C)cc1OC [KA39] | 73.66% | 75.71% | 72.9% | 88.5% | significantly inhibited | significantly inhibited | 60.76% | 83.55% | 58.87% | 86% | significantly inhibited | significantly inhibited | 15.9 μΜ |
| COc1cc(Cc2nnc3sc(C=Cc4ccc(F)cc4)nn23)c(S(=O)(=O)N(C)C)cc1OC [KA25] | 83.38% | 79.8% | 86.45% | 87.73% | significantly inhibited | significantly inhibited | 73.74% | 76.9% | 82.6% | 86.4% | significantly inhibited | significantly inhibited | 120 μΜ |
